Laboratory results published in patent publication US12427120B2, “Compositions comprising guaifenesin and flavour compounds containing an isovanillyl group” (SYMRISE AG, priority 2018, dated 2025).
“And” between values parts separate entries of the source, which are not always exact repeats. Equal entries are not always repeated. Marks after values point to notes of the source that are not given here.

Experiments:
[1] = tested on: guaifenesin-induced bitterness perception; test: Sensory panel test of guaifenesin-induced bitterness perception (sip and spit, scale 0 to 100); assay type: in vivo, human; settings: trained panel n=20 to 30
Experimental: To verify the effect of hesperetin and phyllodulcin on guaifenesin-induced bitterness perception, an aqueous solution of 1.3 g/l guaifenesin (1) was tested against an aqueous solution containing 1.3 g/l guaifenesin and 100 mg/l hesperetin (2) or 7 mg/l phyllodulcin (3) or 100 mg/l homoeriodictyol as comparison (4). The test was conducted as a randomized comparison test in a trained sensory panel (n=20 to 30) via a sip and spit procedure. The panellists tasted both solutions in a blinded fashion and rated bitterness on a scale of 0 to 100.

HGT-1 cells = test: Guaifenesin-induced acid (proton) secretion in HGT-1 cells; assay type: cell-based, Human; settings: for change in proton secretory activity of HGT-1 cells compared to 10 mM guaifenesin alone: 30 μM co-incubated with 10 mM guaifenesin, from 10 min onwards
Excerpt: Human gastric tumour cell line 1 (HGT-1; Laboisse C. L.; Augeron C.; Couturier-Turpin M. H.; Gespach C.; Cheret A. M.; Potet F., Characterization of a newly established human gastric cancer cell line HGT-1 bearing histamine H2-receptors, Canc. Res., 1982, 42, 1541 to 1548) is a suitable screening tool for detecting the interaction of bitter agents and bitter modulating substances (Liszt, K. I.; Hans, J.; Ley, J. P.; Kock, E.; Somoza, V., Characterization of bitter compounds via modulation of proton secretion in human gastric parietal cells in culture, J. Agric. Food Chem., 2018, 66 (10), 2295-2300.). Therefore, the effect of hesperetin and phyllodulcin on guaifenesin-induced acid secretion in the HGT-1 cell line was determined to predict the modulation of guaifenesin-induced bitterness by hesperetin and phyllodulcin. To this aim, HGT-1 cells were cultured under standard conditions and passaged at ca. 80% confluence. […] HGT-1 cells were pre-loaded with (acetyloxy)methyl-3-(acetyloxy)-10-(dimethylamino)-3′-oxo-spiro[7H-benzo[c]xanthene-7,1′(3H)-isobenzofuran]-ar′-carboxylate and incubated in 130 mM NaCl 130, 4.7 mM KCl, 1.3 mM CaCl2), 1.2 mM MgSO4, 1.2 mM KH2PO4, 11.7 mM glucose, 10 mM HEPES 10, 20 μM 4,4′-Diisothiocyanatostilbene-2,2′-disulfonic acid disodium and 20 μM 5-(N-Ethyl-N-isopropyl)amiloride at pH 7.4. Fluorescence recordings were performed with an excitation wavelength of 488 nm and monitoring the emission wavelengths of 580 nm and 640 nm, respectively, each with a 20 nm bandwidth. […]
The data in Table 1 and Table 2 are presented as mean±SEM derived from 3 biological replicates and 6 to 9 technical replicates. Outliers were identified using the Nalimov test, statistical significance was tested one-way ANOVA with Tukey's range test for multiple comparisons and Bonferroni correction, establishing the threshold for significance at p<0.01. Accordingly, data are marked with *(p<0.007), **(p<0.001) or ***(p<0.0001). Control: untreated cells

guaifenesin bitterness = settings: 200 ppm (200 mg/l, 0.2 mg/ml) HED against 13 mg/ml guaifenesin; cited from earlier work
[2] = 100 mg/l (racemic) in aqueous 1.3 g/l guaifenesin versus 1.3 g/l guaifenesin
[3] = 30 μM flavour compound co-incubated with 10 mM guaifenesin, time-point 0 min
[4] = 30 μM flavour compound co-incubated with 10 mM guaifenesin, time-point 5 min
[5] = 30 μM flavour compound co-incubated with 10 mM guaifenesin, time-point 10 min
[6] = 30 μM flavour compound co-incubated with 10 mM guaifenesin, time-point 15 min
[7] = 30 μM flavour compound co-incubated with 10 mM guaifenesin, time-point 20 min
[8] = 30 μM flavour compound co-incubated with 10 mM guaifenesin, time-point 25 min
[9] = 30 μM flavour compound co-incubated with 10 mM guaifenesin, time-point 30 min

| SMILES | Modulation versus control (relative difference in bitter ratings) [1, 2] [%] | change in proton secretory activity of HGT-1 cells compared to 10 mM guaifenesin alone (HGT-1 cells) | proton secretory activity (log 2 transformed ratio of treated versus untreated cells), mean (HGT-1 cells; [3]) | proton secretory activity (log 2 transformed ratio of treated versus untreated cells), mean (HGT-1 cells; [4]) | proton secretory activity (log 2 transformed ratio of treated versus untreated cells), mean (HGT-1 cells; [5]) | proton secretory activity (log 2 transformed ratio of treated versus untreated cells), mean (HGT-1 cells; [6]) | proton secretory activity (log 2 transformed ratio of treated versus untreated cells), mean (HGT-1 cells; [7]) | proton secretory activity (log 2 transformed ratio of treated versus untreated cells), mean (HGT-1 cells; [8]) | proton secretory activity (log 2 transformed ratio of treated versus untreated cells), mean (HGT-1 cells; [9]) | reduction in guaifenesin bitterness (guaifenesin bitterness) | proton secretory activity (log 2 transformed ratio of treated versus untreated cells), mean (HGT-1 cells; 10 mM guaifenesin alone, time-point 0 min) | proton secretory activity (log 2 transformed ratio of treated versus untreated cells), mean (HGT-1 cells; 10 mM guaifenesin alone, time-point 5 min) | proton secretory activity (log 2 transformed ratio of treated versus untreated cells), mean (HGT-1 cells; 10 mM guaifenesin alone, time-point 10 min) | proton secretory activity (log 2 transformed ratio of treated versus untreated cells), mean (HGT-1 cells; 10 mM guaifenesin alone, time-point 15 min) | proton secretory activity (log 2 transformed ratio of treated versus untreated cells), mean (HGT-1 cells; 10 mM guaifenesin alone, time-point 20 min) | proton secretory activity (log 2 transformed ratio of treated versus untreated cells), mean (HGT-1 cells; 10 mM guaifenesin alone, time-point 25 min) | proton secretory activity (log 2 transformed ratio of treated versus untreated cells), mean (HGT-1 cells; 10 mM guaifenesin alone, time-point 30 min) | Modulation versus control (relative difference in bitter ratings) ([1]; 7 mg/l (98 weight %, 95 mol % enantiomeric purity) in aqueous 1.3 g/l guaifenesin versus 1.3 g/l guaifenesin) [%] |
| --- | --- | --- | --- | --- | --- | --- | --- | --- | --- | --- | --- | --- | --- | --- | --- | --- | --- | --- |
| COc1ccc([C@@H]2CC(=O)c3c(O)cc(O)cc3O2)cc1O (racemic) [hesperetin, (2S)-/(2R)-5,7-dihydroxy-2-(3-hydroxy-4-methoxyphenyl)-4-chromanone] | −25 | significant decrease | −0.132 | 0.05735*** | −0.04329* | 0.03955*** | 0.002334*** | 0.01577*** | 0.02592*** | – | – | – | – | – | – | – | – | – |
| COc1cc([C@@H]2CC(=O)c3c(O)cc(O)cc3O2)ccc1O (racemic) [homoeriodictyol, (2S)-/(2R)-5,7-Dihydroxy-2-(4-hydroxy-3-methoxyphenyl)-4-chromanone, reference compound] | −12 | – | – | – | – | – | – | – | – | about 40% | – | – | – | – | – | – | – | – |
| COc1ccccc1OCC(O)CO (stereo not drawn) [guaifenesin, 3-(2-methoxyphenoxy-)1,2-propanediol] | – | – | – | – | – | – | – | – | – | – | 0.2711 and 0.2596 | 0.2378 and 0.2475 | 0.2801 and 0.187 | 0.2178 and 0.2259 | 0.323 and 0.265 | 0.3953 and 0.1861 | 0.2706 and 0.2473 | – |
| COc1ccc([C@H]2Cc3cccc(O)c3C(=O)O2)cc1O [phyllodulcin, (3S)-/(3R)-8-hydroxy-3-(3-hydroxy-4-methoxy-phenyl)isochroman-1-one] | – | significant decrease | −0.08165* | 0.0579*** | 0.07294*** | −0.04172 | 0.08512* | −0.1469 | 0.1433*** | – | – | – | – | – | – | – | – | −15 |
